Reference: US7618663B2, “Anti-arthritic herbal composition and method thereof” (priority 2004, dated 2009)
Marks after values point to notes of the source that are not given here.

Tests used:
[1] = test system: formaldehyde-induced arthritis; experiment: formaldehyde-induced acute arthritis, paw edema; type: in vivo, rat; conditions: dose 30 mg/kg; given 24 hours before formalin and continued for 13 days; mean ± S.E.M., six rats
Experimental: Formaldehyde-induced arthritis was produced in rats by injecting 0.1 ml of 2% formaldehyde in the hind paw under the planter aponeurosis. Paw volume was measured daily for 13 days. The test composition was given 24 hours before formalin injection and continued for 13 days.

stomach = conditions: known side effect of the drug; cited from earlier work
[2] = test system: formalin arthritis and granuloma pouch; conditions: cited from earlier work

Row | Structure (SMILES) | % Edema (Swelling) [1] | ulcer in the stomach (stomach) | mortality rate ([2]; albino rats) | gastric side effects-ulcer and bleeding ([2]; rats)
1 | CC(C)Cc1ccc(C(C)C(=O)O)cc1 (stereo not shown) [Ibuprofen] | 27.80 ± 4.2^b % | causes ulcer in the stomach | – | –
2 | C[C@H]1C[C@H]2[C@@H]3CCC4=CC(=O)C=C[C@]4(C)[C@@]3(F)[C@@H](O)C[C@]2(C)[C@@]1(O)C(=O)CO [betamethasone] | – | – | 12 out of 29 | 10 out of 12
